Here are results for seven compounds from patent US5939413A, “Piperazine derivatives” (Fujisawa Pharmaceutical Co., Ltd., priority 1995, dated 1999).

The target of this assay is T1, h-NK1 receptors (Homo sapiens, UniProt P25103).
T1 construct: expressed in transfected cells; host or cells: CHO cells, permanently expressing; crude membranes
Put plainly: 125I-BH-Substance P binding to h-NK1 receptors. The settings on record: read-out: inhibition rate of 125I-BH-Substance P binding to h-NK1 receptors. As to the method:
(a) Crude CHO cell membrane preparation
CHO cells permanently expressing h-NK1 receptors were harvested and homogenized with a Dounce homogenizer at 4° C. in a buffer (0.25 M sucrose, […] Tris-HCl pH 7.4, 10 mM MgCl2, 1 mM EDTA, 5 μg/ml p-APMSF). The homogenate was centrifuged (500×g, 10 minutes), and the pellet was resuspended in the same buffer, homogenized, and centrifuged. The two supernatants were combined and centrifuged (100,000×g, 1 hour). The crude cell membranes thus isolated were resuspended in buffer (25 mM Tris-HCl pH 7.4, 10 mM MgCl2, 1 mM EDTA, 5 μg/ml p-APMSF) and stored at -80° C. until use.
At the end of the incubation period, the content was quickly filtered over a Wahtman GF/C glass filter (pretreated with 0.1% polyethylene imine for 3 hours prior to use) under aspiration. Each of the filters was then washed four times with 5 ml of buffer (50 mM Tris-HCl pH 7.4, 5 mM MnCl2). […] All data presented are specific binding defined as that displaceable by 3 μM unlabeled Substance P.

Setting [1] is: test compound at 0.1 μg/ml, crude membranes of CHO cells expressing h-NK1 receptors.

Structures can show the parent of a compound that is named as a salt. Where two headings read alike, the source gives them in different places.

T1 sequence (P25103 whole entry): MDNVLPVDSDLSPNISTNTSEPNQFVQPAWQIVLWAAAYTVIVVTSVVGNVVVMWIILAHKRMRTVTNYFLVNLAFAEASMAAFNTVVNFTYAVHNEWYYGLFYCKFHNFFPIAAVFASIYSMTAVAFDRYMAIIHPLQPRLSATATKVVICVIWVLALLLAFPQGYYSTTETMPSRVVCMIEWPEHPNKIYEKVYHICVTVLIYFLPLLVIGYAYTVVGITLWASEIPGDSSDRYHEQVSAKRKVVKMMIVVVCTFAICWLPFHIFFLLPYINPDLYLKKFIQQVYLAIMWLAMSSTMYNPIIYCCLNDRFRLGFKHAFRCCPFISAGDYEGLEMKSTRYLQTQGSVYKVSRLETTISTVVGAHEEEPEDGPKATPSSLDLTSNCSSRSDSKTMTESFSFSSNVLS

The term inhibition denotes the drop in the measured response relative to a control, in per cent. `O=C(CCCN1C[C@@H](Cc2c[nH]c3ccccc23)N(C(=O)c2cc(C(F)(F)F)cc(C(F)(F)F)c2)CC1=O)N1CCC(N2CCCCC2)CC1` [Example 7-3]: under setting [1], the inhibition at 0.1 µg/mL was more than 90%.
As to `CN1CCCN(C(=O)CN2C[C@@H](Cc3c[nH]c4ccccc34)N(C(=O)c3cc(C(F)(F)F)cc(C(F)(F)F)c3)CC2=O)CC1` [Example 6, (5R)-4-[3,5-bis(trifluoromethyl)benzoyl]-5-(1H-indol-3-ylmethyl)-1-[(4-methyl-1-homopiperazinyl)carbonylmethyl]-piperazin-2-one hydrochloride], the inhibition at 0.1 µg/mL is more than 90%.
Consider `CCOC(=O)CCCN1C[C@@H](Cc2c[nH]c3ccccc23)N(C(=O)c2cc(C(F)(F)F)cc(C(F)(F)F)c2)CC1=O` [Example 2, (5R)-4-[3,5-bis(trifluoromethyl)benzoyl]-1-[3-(ethoxycarbonyl)propyl]-5-(1H-indol-3-ylmethyl)piperazin-2-one], for which the inhibition at 0.1 µg/mL under setting [1] is more than 90%.
As for `CCOC(=O)CN1C[C@@H](Cc2c[nH]c3ccccc23)N(C(=O)c2cc(C(F)(F)F)cc(C(F)(F)F)c2)CC1=O` [Example 3, (5R)-4-[3,5-bis(trifluoromethyl)benzoyl]-1-(ethoxycarbonylmethyl)-5-(1H-indol-3-ylmethyl)piperazin-2-one], the inhibition at 0.1 µg/mL under setting [1] is more than 90%.
The same measure, in the same setting: as for `CN1CCCN(C(=O)CCCN2C[C@@H](Cc3c[nH]c4ccccc34)N(C(=O)c3cc(C(F)(F)F)cc(C(F)(F)F)c3)CC2=O)CC1` [Example 7-4], the figure is more than 90%; as for `O=C(CN1C[C@@H](Cc2c[nH]c3ccccc23)N(C(=O)c2cc(C(F)(F)F)cc(C(F)(F)F)c2)CC1=O)N1CCC(N2CCCCC2)CC1` [Example 7-1], more than 90%; as for `NC(=O)CN1C[C@@H](Cc2c[nH]c3ccccc23)N(C(=O)c2cc(C(F)(F)F)cc(C(F)(F)F)c2)CC1=O` [Example 5, (5R)-4-[3,5-bis(trifluoromethyl)benzoyl]-1-(carbamoylmethyl)-5-(1H-indol-3-ylmethyl)piperazin-2-one], more than 90%.
